As a reminder, the IC50 is the point on the concentration scale where inhibition reaches its midpoint.

For one assay, the target named is CBP (Homo sapiens (Human), UniProt Q92793). As to the kind of experiment: In vitro CBP inhibition (AlphaScreen, biotinylated H4-tetraacetyl peptide). Type of assay: binding.
Chain of CBP (Q92793 1081-1197): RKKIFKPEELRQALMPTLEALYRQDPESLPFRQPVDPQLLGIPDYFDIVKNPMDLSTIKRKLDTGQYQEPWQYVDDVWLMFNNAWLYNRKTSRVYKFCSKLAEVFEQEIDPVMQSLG
Conditions: not given
Put shortly: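 His-tagged CBP expressed in E. coli (50 nM final) incubated with biotinylated H4K5/8/12/16(Ac) peptide (20 nM final) in 50 mM HEPES pH 7.3, 10 mM NaCl, 0.25 mM TCEP, 0.1% BSA, 0.005% Brij-35, 0.4% DMSO, 20 min at room temp.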
Background: Bead proximity is the source of the signal in Alpha formats.
`CCOc1cc(=O)n(C)cc1-c1cn(Cc2ccccc2)nc1NC(C)=O` [Example 187, N-[1-Benzyl-4-(4-ethoxy-1-methyl-6-oxo-1,6-dihydro-pyridin-3-yl)-1H-pyrazol-3-yl]-acetamide] showed an IC50 of 500 to 5000 nM.

The same assay, now with this note: AlphaScreen, Table 29; read-out: CBP IC50.
On to `Cn1cc(-c2cnn(-c3ccccc3C#N)c2)c(-c2ccc(Cl)cc2)cc1=O` [Example 214, 2-{4-[4-(4-Chloro-phenyl)-1-methyl-6-oxo-1,6-dihydro-pyridin-3-yl]-pyrazol-1-yl}-benzonitrile], for which the 50% inhibitory concentration (IC50) was less than 500 nM.

Turning to `Cn1cc(-c2cnn(CCN3CCOCC3)c2)c(-c2ccccc2)cc1=O` [Example 130, 1-methyl-5-(1-(2-morpho-linoethyl)-1H-pyrazol-4-yl)-4-phenylpyridin-2(1H)-one], the IC50 was less than 500 nM.

Take `Cn1cc(-c2cnn(CC3CC3)c2)c(-n2ccc(C(=O)O)c2)cc1=O` [Example 86, 1-(5-(1-(cyclopropylmethyl)-1H-pyrazol-4-yl)-1-methyl-2-oxo-1,2-dihydropyridin-4-yl)-1H-pyrrolc-3-carboxylic acid]: the IC50 was less than 500 nM. The same measure, in the same setting: for `CCOc1ccc(-c2cc(=O)n(C)cc2-c2cnn(-c3ccccc3C(=O)O)c2)cn1` [Example 230, 2-[4-(6-Ethoxy-1′-methyl-6′-oxo-1′,6′-dihydro-[3,4′]bipyridinyl-3′-yl)-pyrazol-1-yl]-benzoic acid] the value was less than 500 nM. Same read-out and setting: for `CCOc1cc(=O)n(C)cc1-c1cnn(Cc2ccccc2)c1` [Example 64, 5-(1-benzyl-1H-pyrazol-4-yl)-4-ethoxy-1-methylpyridin-2(1H)-one] the value was less than 500 nM; for `COc1ncc(-c2cc(=O)n(C)cc2-c2cnn(-c3ccccc3F)c2)cn1` [Example 320, 5-(1-(2-fluorophenyl)-1H-pyrazol-4-yl)-4-(2-methoxypyrimidin-5-yl)-1-methylpyridin-2(1H)-one], less than 500 nM; for `Cn1ccc(-c2cc(=O)n(C)cc2-c2cnn(Cc3ccccc3)c2)n1` [Example 109, 5-(1-benzyl-1H-pyrazol-4-yl)-1-methyl-4-(1-methyl-1H-pyrazol-3-yl)pyridin-2(1H)-one], 500 to 5000 nM. Still for that read-out and setting: for `Cn1cc(-c2cnn(Cc3ccccc3)c2)c(-c2cc[nH]c(=O)c2)cc1=O` [Example 193, 5-(1-Benzyl-1 H-pyrazol-4-yl)-1-methyl-1H,1′H-[4,4′]bipyridinyl-2,2′-dione] the value was less than 500 nM; for `CC(C)COc1ccc(-c2cc(=O)n(C)cc2-c2cnn(-c3ccccc3C#N)c2)cn1` [Example 236, 2-[4-(6-Isobutoxy-1′-methyl-6′-oxo-1′,6′-dihydro-[3,4′]bipyridinyl-3′-yl)-pyrazol-1-yl]-benzonitrile], less than 500 nM.

For `CC(C)Nc1ccc(-c2cc(=O)n(C)cc2-c2cnn(-c3cccc(Cl)c3C#N)c2)cn1` [Example 339, 2-chloro-6-[4-[4-[6-(isopropylamino)-3-pyridyl]-1-methyl-6-oxo-3-pyridyl]-pyrazol-1-yl]benzonitrile], the IC50 was less than 500 nM.

Take `COc1ccc(-c2cc(=O)n(C)cc2-c2cnn(-c3cc(C#N)ccc3OC)c2)cn1` [Example 306, 4-Methoxy-3-[4-(6-methoxy-1′-methyl-6′-oxo-1′,6′-dihydro-[3,4′]bipyridinyl-3′-yl)-pyrazol-1-yl]-benzonitrile]: the IC50 was less than 500 nM. With `CCc1ccc(-c2cc(=O)n(C)cc2-c2cnn(-c3cccc(F)c3C#N)c2)cn1` [Example 372, 2-(4-(6-ethyl-1′-methyl-6-oxo-1′,6′-dihydro-[3,4′-bipyridin]-3′-yl)-1H-pyrazol-1-yl)-6-fluorobenzonitrile], the IC50 is less than 500 nM.

For the molecule `CN(C)CCCOc1ccc(-c2cc(=O)n(C)cc2-c2cnn(-c3cccc(C4CC4)c3C#N)c2)cn1` [Example 382, 2-cyclopropyl-6-(4-(6-(3-(dimethylamino)propoxy)-1′-methyl-6′-oxo-1′,6′-dihydro-[3,4′-bipyridin]-3′-yl)-1H-pyrazol-1-yl)benzonitrile], the half-inhibitory concentration (IC50) was less than 500 nM. Turning to `CCOc1cc(=O)n(C)cc1-c1cnn(C(C)c2ccc(-c3ccccc3)cc2)c1` (stereo not drawn) [Example 63, 5-(1-(1-([1,1′-biphenyl]-4-yl)ethyl)-1H-pyrazol-4-yl)-4-ethoxy-1-methylpyridin-2(1H)-one], the IC50 is less than 500 nM.

Turning to `CC(C)Oc1ccc(-c2cc(=O)n(C)cc2-c2cnn(-c3cccc(F)c3C#N)c2)cn1` [Example 358, 2-fluoro-6-[4-[4-(6-isopropoxy-3-pyridyl)-1-methyl-6-oxo-3-pyridyl]pyrazol-1-yl]benzonitrile], the IC50 is less than 500 nM. Still for that read-out and setting: in the case of `COc1ccc(-c2cc(=O)n(C)cc2-c2cnn(CC3CC3(F)F)c2)cc1` (stereo not drawn) [Example 191, 5-[1-(2,2-Difluoro-cyclopropylmethyl)-1H-pyrazol-4-yl]-4-(4-methoxy-phenyl)-1-methyl-1H-pyridin-2-one] it was less than 500 nM. Same read-out and setting: for `CCOc1cc(=O)n(C)cc1-c1cnn(Cc2ccc(-c3cnn(C)c3)cc2)c1` [Example 102, 4-ethoxy-1-methyl-5-{1-[4-(1-methyl-1H-pyrazol-4-yl)-benzyl]-1H-pyrazol-4-yl}-1H-pyridin-2-one] the value was less than 500 nM; for `Cc1cc(-c2cnn(-c3ccccc3C#N)c2)cn(C)c1=O` [Example 254, 2-[4-(1,5-Dimethyl-6-oxo-1,6-dihydro-pyridin-3-yl)-pyrazol-1-yl]-benzonitrile], less than 500 nM. On the same count and under the same terms, in the case of `CCOC(=O)c1nn(Cc2ccccc2)cc1-c1cc(C)c(=O)n(C)c1` [Example 198, 1-Benzyl-4-(1,5-dimethyl-6-oxo-1,6-dihydro-pyridin-3-yl)-1H-pyrazole-3-carboxylic acid ethyl ester] it was less than 500 nM; in that of `CCOc1cc(=O)n(C)cc1-c1cnn(-c2ccccc2F)c1` [Example 252, 4-ethoxy-5-(1-(2-fluorophenyl)-1H-pyrazol-4-yl)-1-methylpyridin-2(1H)-one], less than 500 nM. Turning to `Cn1cc(-c2cnn(Cc3ccccc3)c2)c(-c2cnn(CC(C)(C)O)c2)cc1=O` [Example 161, 5-(1-benzyl-1H-pyrazol-4-yl)-4-(1-(2-hydroxy-2-methylpropyl)-1H-pyrazol-4-yl)-1-methyl-pyridin-2(1H)-one], the IC50 is less than 500 nM. On the same count and under the same terms, in the case of `COc1cc(-c2cnn(C(C)c3ccccc3)c2)cn(C)c1=O` (stereo not drawn) [Example 32, 3-methoxy-1-methyl-5-(1-(1-phenylethyl)-1H-pyrazol-4-yl) pyridin-2(1H)-one] it was 500 to 5000 nM; in that of `Cn1cc(-c2cnn(Cc3ccccc3)c2)c(-n2ccc(C#N)c2)cc1=O` [Example 80, 1-(5-(1-benzyl-1H-pyrazol-4-yl)-1-methyl-2-oxo-1,2-dihydropyridin-4-yl)-1H-pyrrole-3-carbonitrile], less than 500 nM; in that of `CCOc1ccc(-c2cc(=O)n(C)cc2-c2cnn(-c3cc(OC)ccc3C#N)c2)cn1` [Example 265, 2-[4-(6-Ethoxy-1′-methyl-6′-oxo-1′,6′-dihydro-[3,4′]bipyridinyl-3′-yl)-pyrazol-1-yl]-4-methoxy-benzonitrile], less than 500 nM. Same read-out and setting: in the case of `COc1ccc(-c2cc(=O)n(C)cc2-c2cnn(C(C)c3ccccc3)c2)cn1` (stereo not drawn) [Example 308, 6-methoxy-1′-methyl-5′-(1-(1-phenylethyl)-1H-pyrazol-4-yl)-[3,4′-bipyridin]-2′(1′H)-one] it was less than 500 nM; in that of `Cc1ccc(-c2cc(=O)n(C)cc2-c2cnn(-c3ccccc3C#N)c2)cc1` [Example 213, 2-[4-(1-Methyl-6-oxo-4-p-tolyl-1,6-dihydro-pyridin-3-yl)-pyrazol-1-yl]-benzonitrile], less than 500 nM; in that of `Cn1cc(-c2cnn(Cc3ccccc3)c2)c(-n2ccc(C(N)=O)c2)cc1=O` [Example 85, 1-(5-(1-benzyl-1H-pyrazol-4-yl)-1-methyl-2-oxo-1,2-dihydropyridin-4-yl)-1H-pyrrole-3-carboxamide], less than 500 nM. In the case of `CCOc1cc(=O)n(C)cc1-c1cnn(-c2c(Cl)cccc2Cl)c1` [Example 98, 5-(1-(2,6-dichlorophenyl)-1H-pyrazol-4-yl)-4-ethoxy-1-methyl-pyridin-2(1H)-one], the IC50 was less than 500 nM. On to `CCCn1ccc(-c2cc(=O)n(C)cc2-c2cnn(-c3cccc(C4CC4)c3C#N)c2)cc1=O` [Example 385, 2-cyclopropyl-6-[4-[1-methyl-6-oxo-4-(2-oxo-1-propyl-4-pyridyl)-3-pyridyl]pyrazol-1-yl]benzonitrile], for which the IC50 was less than 500 nM.

With `CC(c1ccccc1)n1cc(-c2cn(C)c(=O)cc2Oc2ccccc2)cn1` (stereo not drawn) [Example 57, 1-methyl-4-phenoxy-5-(1-(1-phenylethyl)-1H-pyrazol-4-yl) pyridin-2(1H)-one], the IC50 lay within 500 to 5000 nM. Same read-out and setting: in the case of `CCOc1cc(=O)n(C)cc1-c1cnn(C(C)c2ccc(-c3cnn(C)c3)cc2)c1` (stereo not drawn) [Example 100, 4-ethoxy-1-methyl-5-(1-{1-[4-(1-methyl-1H-pyrazol-4-yl)-phenyl]-ethyl}-1H-pyrazol-4-yl)-1H-pyridin-2-one] it was less than 500 nM; in that of `Cn1cc(-c2cnn(Cc3ccccc3)c2)c(N2CCC(S(C)(=O)=O)C2)cc1=O` (stereo not drawn) [Example 37, 5-(1-Benzyl-1H-pyrazol-4-yl)-4-(3-methanesulfonyl-pyrrolidin-1-yl)-1-methyl-1H-pyridin-2-one], less than 500 nM.

`Cc1ccc(-c2cc(=O)n(C)cc2-c2cnn(-c3ccccc3C(=O)O)c2)cc1` [Example 224, 2-[4-(1-Methyl-6-oxo-4-p-tolyl-1,6-dihydro-pyridin-3-yl)-pyrazol-1-yl]-benzoic acid]: the IC50 is less than 500 nM. On the same count and under the same terms, in the case of `Cn1cc(-c2cnn(-c3cccc(Cl)c3C#N)c2)c(-c2ccc(NCC3CC3)nc2)cc1=O` [Example 348, 2-chloro-6-(4-{6-[(cyclopropylmethyl)amino]-1′-methyl-6′-oxo-1′,6′-dihydro-[3,4′-bipyridine]-3′-yl}-1H-pyrazol-1-yl)benzonitrile] it was less than 500 nM; in that of `CNc1cc(=O)n(C)cc1-c1cnn(C(C)c2ccccc2)c1` (stereo not drawn) [Example 42, 1-methyl-4-(methyl-amino)-5-(1-(1-phenylethyl)-1H-pyrazol-1-yl) pyridin-2(1H)-one], less than 500 nM.

Source of the values: US10617680B2 (CELGENE QUANTICEL RESEARCH, INC., priority 2017, dated 2020).
